Bridge positions count the residues as written; N and C are the ends. Square brackets hold non-standard residues; d marks the D form. Peptide text beside a SMILES is read from it. βAla = NCCC(=O)O
What was measured:
HL-60 cells [1] = tested on: HL-60 cells; set-up: method as in PMID 24283803, PMID 33562780; settings: cited from earlier work
[2] = tested on: primary cells from AML patients' bone marrow samples; experiment: Annexin V/PI staining, flow cytometry; type: cell-based, Human; settings: primary cells from the majority of AML patients' bone marrow samples; 40 µM, 48 h
Excerpt: Bone marrow samples from five AML patients with high leukemia involvement were collected in accordance with the Declaration of Helsinki after informed consent and ethical approval of the Clinical Research Board from the Center for Genetic Engineering and Biotechnology (CIGB, Havana, Cuba) (Table S1). Mononuclear cells from bone marrow samples were isolated using Ficoll-Paque (GE Healthcare, Chicago, IL, USA) density gradient centrifugation. Cells were maintained under standard cell culture conditions.
Viability of AML cells was measured using FITC Annexin V Apoptosis Detection Kit I (BD Biosciences, San Jose, CA, USA). Briefly, cell lines were incubated with 40 µM CIGB-300 for 3 and 5 h, while primary cells were incubated during 48 h. Following incubation, cells were washed twice with cold PBS and resuspended in binding buffer (1×) at a final concentration of 1 × 10^6 cells/mL. Subsequently, 5 µL of FITC Annexin V and PI were added, and cell suspensions were incubated for 15 min at room temperature in the dark. Flow cytometric analysis of stained cells was performed in Partec CyFlow Space instrument (Sysmex Partec GmbH, Gorlitz, Germany), and FlowJo software (v7.6.1) (BD, Ashland, OR, USA) was used for data analysis and visualization.

HL-60 cells [3] = experiment: Cell cycle analysis by PI staining and flow cytometry; type: cell-based, Human; settings: 40 µM, 24 h
Experimental: (§1) For cell cycle analysis, AML cells were incubated with 40 µM CIGB-300 during 24 h. Following treatment with the peptide, cells were collected by centrifugation, washed with PBS, and fixed at 4 °C for 30 min with ice-cold 70% ethanol. After fixation, cells were treated with DNase-free RNase A (Sigma, St. Louis, MO, USA) and subsequently stained at 37 °C for 20 min with 50 µg/mL PI solution (Sigma, St. Louis, MO, USA). Stained cells were analyzed in the abovementioned Partec CyFlow Space flow cytometry, and FlowJo Software (v7.6.1) was used for data processing and visualization.

OCI-AML3 cells = experiment: as above; type: cell-based, Human; settings: 40 µM, 24 h
Experimental: as §1

NPM1 S125 = experiment: Western blot of CK2-mediated NPM1 phosphorylation; type: cell-based, Human; settings: both AML cell lines (HL-60, OCI-AML3), 40 µM
Experimental: Cells were lysed in RIPA buffer containing protease/phosphatase inhibitor (Thermo Fisher Scientific, Waltham, MA, USA), and equal amounts of protein were resolved in 12.5% SDS-PAGE [46]. Next, proteins were transferred to a nitrocellulose membrane and immunoblotted with the following antibodies according to instructions from the manufacturer: NPM1, p-NPM1 (S125), and CK2α (Abcam, Cambridge, United Kingdom) and β-actin (Sigma, St. Louis, MO, USA). Detection was performed with peroxidase-conjugated anti-mouse or anti-rabbit IgG (Sigma, St. Louis, MO, USA), and signal was developed using SuperSignal West Pico Chemiluminescent Substrate (Thermo Fisher Scientific, Waltham, MA, USA).
Figure S2. CIGB-300 peptide impairs CK2-mediated phosphorylation of NPM1 in AML cells. Cells treated with
40 µM of CIGB-300 during the indicated times were analyzed by western blot using phospho-specific and total […]

[4] = tested on: HL-60 cells transduced with LV-pLG or LV-shRNA; experiment: PI staining cytotoxicity in NPM1 knock-down cells; type: cell-based, Human; settings: 20 or 40 µM, 5 h, n = 3
Experimental: Cells were infected with HIV-based third-generation lentiviral particles according to experimental conditions previously described. […]. After virus production and subsequent titration, cells were infected by spinoculation in the presence of polybrene (8 µg/mL) and at 10× multiplicity of infection. On the next day, fresh medium was added, and the cells were allowed to recover for another 48 h. Finally, infected cells were analyzed by flow cytometry and Western blot for evaluation of GFP expression and NPM1 protein levels, respectively.
Figure 4 Lentiviral vector-mediated knock-down of NPM1 in AML cells: (A) Flow cytometry analysis of GFP expression in transduced HL-60 cells at day 7 post-infection. Percentage of GFP+ cells was determined on live-cell population (R1 gate in dot plots); (B) Immunoblots from HL-60 transduced cells showing NPM1 protein knock-down in LV-shRNA infected cells. Densitometry analysis values of NPM1 bands were normalized to β-actin and then to untransduced cells; (C) GFP expression levels and (D) viability of transduced HL-60 cells were followed by flow cytometry during three weeks post-infection; (E) Sensibility of transduced cells toward the cytotoxic effect of CIGB-300 was evaluated by PI staining. Cells were incubated with 20 or 40 µM of CIGB-300 for 5 h, stained with PI solution, and then analyzed by flow cytometry. […]

CK2α catalytic subunit = target: T1, CK2α catalytic subunit (Homo sapiens, UniProt P68400); experiment: In vivo pull-down followed by immunodetection; type: binding; settings: AML cells, immunoblot
T1 construct: endogenous in cells
T1 sequence (P68400 whole entry): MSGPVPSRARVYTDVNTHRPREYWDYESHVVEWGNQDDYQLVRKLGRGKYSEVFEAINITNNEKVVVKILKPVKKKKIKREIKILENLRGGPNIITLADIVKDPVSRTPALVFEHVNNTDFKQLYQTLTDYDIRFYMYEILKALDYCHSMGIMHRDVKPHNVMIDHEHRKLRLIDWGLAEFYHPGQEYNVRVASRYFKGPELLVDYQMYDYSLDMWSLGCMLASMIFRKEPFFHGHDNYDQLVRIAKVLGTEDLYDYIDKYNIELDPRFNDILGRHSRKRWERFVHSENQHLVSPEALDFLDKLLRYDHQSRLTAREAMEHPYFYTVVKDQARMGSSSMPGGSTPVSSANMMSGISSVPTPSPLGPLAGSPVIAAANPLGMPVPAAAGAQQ
Experimental: For in vivo pull-down assays, CIGB-300 with N-terminal biotin tag (CIGB-300-B) was added to AML cells at a final concentration of 40 µM and incubated for 30 min. Subsequently, cells were collected, washed, and lysed in hypotonic PBS solution (0.1×) containing 1 mM DTT (Sigma, St. Louis, MO, USA) and complete protease inhibitor (Roche, Basel, Switzerland) by eight freeze–thaw (liquid nitrogen/37 °C) cycles. Cellular lysates were cleared by centrifugation, and 300 µg of total protein was added to 30 µL of pre-equilibrated streptavidin–sepharose matrix (GE Healthcare, Chicago, IL, USA). Following 1 h at 4 °C, the matrix was collected by centrifugation and extensively washed with PBS solution (1×) containing 1 mM DTT. Proteins bound to streptavidin–sepharose matrix were digested with trypsin (Promega, Madison, WI, USA) during 16 h or eluted for western blot analysis. In parallel, untreated cells were subjected to the same experimental procedure to identify those proteins non-specifically bound to streptavidin–sepharose matrix.
Cells were lysed in RIPA buffer containing protease/phosphatase inhibitor (Thermo Fisher Scientific, Waltham, MA, USA), and equal amounts of protein were resolved in 12.5% SDS-PAGE [46]. […]

[5] = tested on: CK2 substrates in HL-60 cells; experiment: Phosphoproteomic analysis; type: cell-based, Human; settings: 40 µM, 30 min, three replicates
Experimental: (§2) Sample preparation, phosphopeptide enrichment, and nanoLC-MS/MS for phosphoproteomic analysis of AML cells treated or not with 40 µM CIGB-300 during 30 min were conducted as previously described. Briefly, three replicates from each condition were processed by multienzyme digestion filter-aided sample preparation (MED-FASP) with overnight lys-C and tryptic digestions and the phosphopeptides enriched by TiO2 chromatography. Phosphopeptides were later injected through an EASY-nLC 1200 system into a QExactive HF mass spectrometer (Thermo Scientific, USA) using a home-made column ([…], 20 cm length), and were separated with a gradient from 5% buffer B (0.1% formic acid in acetonitrile) up to 30% in 45 min, 30–60% in 5 min, and 60–95% in 5 min more.
(§3) Data processing and quantification were performed in MaxQuant software (v1.6.2.10) and Perseus computational platform (v1.6.2.2). Phosphopeptides dataset was filtered of reverse and potential contaminants hits, and only phosphosites with localization probability above 0.75 were retained for further analysis. Additionally, only those phosphopeptides represented in each group were considered, and differences in phosphosites occupancy higher than 25% were selected as significant changes. Enzyme–substrate relations were retrieved using post-translational modification resource iPTMnet and web-based tool KEA2 [48, 49]. In addition to well-documented substrates, we searched for candidate CK2 substrates based on the presence of the CK2 consensus sequence, the enzyme–substrate predictions retrieved from NetworKIN database, the dataset of high confidence CK2 substrates reported by Bian et al., and the phosphoproteins that interact with protein kinase CK2 according to the Metascape database.

[6] = tested on: CK2 substrates in OCI-AML3 cells; experiment: Phosphoproteomic analysis; type: cell-based, Human; settings: 40 µM, 30 min, three replicates
Experimental: as §2, §3

[7] = tested on: chronic and acute T-cell lymphocytic leukemia (CLL and T-ALL); settings: read-out: IC50, estimated values; cited from earlier work
Experimental: In contrast with solid tumor cells, which display a heterogenous sensitivity profile, leukemia cells are more sensitive to CIGB-300 anti-proliferative effects. Indeed, in a panel containing human lung, cervix, prostate, and colon cancer cell lines, the IC50 values for CIGB-300 ranged between 20 and 300 µM [32], while in chronic and acute T-cell lymphocytic leukemia (CLL and T-ALL), the estimated values were all below 40 µM [34, 44].

O=C(O)c1ccc2c(c1)nc(Nc1cccc(Cl)c1)c1ccncc12 [CX-4945]
response toward cytotoxic effect (HL-60 cells [1]): refractoriness

CSCC[C@@H]1NC(=O)[C@H](Cc2c[nH]c3ccccc23)NC(=O)[C@@H](NC(=O)CCNC(=O)[C@H](CCC(N)=O)NC(=O)[C@@H]2CCCN2C(=O)[C@@H]2CCCN2C(=O)[C@H](CCCNC(=N)N)NC(=O)[C@H](CCCNC(=N)N)NC(=O)[C@H](CCCNC(=N)N)NC(=O)[C@H](CCC(N)=O)NC(=O)[C@H](CCCNC(=N)N)NC(=O)[C@H](CCCNC(=N)N)NC(=O)[C@H](CCCCN)NC(=O)[C@H](CCCCN)NC(=O)[C@H](CCCNC(=N)N)NC(=O)CN)CSSC[C@@H](C(=O)O)NC(=O)[C@H]([C@@H](C)O)NC(=O)CNC(=O)[C@H](CC(C)C)NC(=O)[C@H](Cc2c[nH]cn2)NC(=O)[C@H](CCCNC(=N)N)NC(=O)[C@@H]2CCCN2C(=O)[C@H](CO)NC1=O [CIGB-300] (H-GRKKRRQRRRPPQ[βAla]CWMSPRHLGTC-OH; disulfide 15-25; N-terminus and C-terminus assumed)
effect on viability (Annexin V-FITC/PI) [2]: promoted apoptosis | effect on cell cycle progression (HL-60 cells [3]): accumulation of HL-60 cells in S phase | effect on cell cycle progression (OCI-AML3 cells): no change in cell cycle distribution | CK2-mediated phosphorylation at S125 residue of NPM1 (NPM1 S125): inhibition of CK2-mediated phosphorylation | sensibility toward cytotoxic effect, LV-shRNA (NPM1 knock-down roughly 85%) vs LV-pLG [4]: no differential sensibility | interaction with CK2α subunit (CK2α catalytic subunit): clear interaction | Occupancy Treated–Control, ABCF1 S140 (Q8NE71) [5]: −0.2693 ^2 | Occupancy Treated–Control, AP3B1 S276 (O00203) [5]: −0.427 | Occupancy Treated–Control, BCLAF1 S397 (Q9NYF8) [5]: −0.2902 ^1 | Occupancy Treated–Control, C1orf52 S158 (Q8N6N3) [5]: −0.3645 | Occupancy Treated–Control, DDX24 S82 (Q9GZR7) [5]: −0.3284 | Occupancy Treated–Control, DKC1 S485 (O60832) [5]: −0.3777 | Occupancy Treated–Control, DKC1 S494 (O60832) [5]: −0.3312 ^1 | Occupancy Treated–Control, EIF3C S39 (Q99613) [5]: −0.2738 ^2 | Occupancy Treated–Control, EIF4G1 S1198 (Q04637) [5]: −0.276 | Occupancy Treated–Control, FKBP15 S346 (Q5T1M5) [5]: −0.25 | Occupancy Treated–Control, HIRIP3 S196 (Q9BW71) [5]: −0.2842 | Occupancy Treated–Control, HIRIP3 S199 (Q9BW71) [5]: −0.2649 | Occupancy Treated–Control, HMGA1 S44 (P17096) [5]: −0.3177 | Occupancy Treated–Control, LEMD3 S144 (Q9Y2U8) [5]: −0.3252 | Occupancy Treated–Control, LYN S13 (P07948) [5]: −0.3987 | Occupancy Treated–Control, M6PR S267 (P20645) [5]: −0.26 | Occupancy Treated–Control, MCM2 S41 (P49736) [5]: −0.421 ^2 | Occupancy Treated–Control, NAP1L4 S125 (Q99733) [5]: −0.3398 | Occupancy Treated–Control, PABPC1 T319 (P11940) [5]: −0.2931 | Occupancy Treated–Control, PAK2 T169 (Q13177) [5]: −0.2963 | Occupancy Treated–Control, PNN S381 (Q9H307) [5]: −0.2998 | Occupancy Treated–Control, SEPTIN2 S218 (Q15019) [5]: −0.2677 ^1, 2 | Occupancy Treated–Control, SRSF11 S464 (Q05519) [5]: −0.3301 | Occupancy Treated–Control, ST13 S75 (P50502) [5]: −0.2852 | Occupancy Treated–Control, STMN1 S63 (P16949) [5]: −0.3357 ^2 | Occupancy Treated–Control, THRAP3 S211 (Q9Y2W1) [5]: −0.2914 | Occupancy Treated–Control, TMPO S66 (P42166) [5]: −0.4836 | Occupancy Treated–Control, TMPO S67 (P42166) [5]: −0.4836 | Occupancy Treated–Control, TOP2A S1106 (P11388) [5]: −0.2854 | Occupancy Treated–Control, XRCC6 S520 (P12956) [5]: −0.3763 | Occupancy Treated–Control, BCLAF1 S397 (Q9NYF8) [6]: −0.3056 ^1 | Occupancy Treated–Control, BRCA1 S1164 (P38398) [6]: −0.3932 | Occupancy Treated–Control, CEP170 S1112 (Q5SW79) [6]: −0.4366 | Occupancy Treated–Control, DKC1 S494 (O60832) [6]: −0.2948 ^1 | Occupancy Treated–Control, EIF5B S214 (O60841) [6]: −0.2868 | Occupancy Treated–Control, HNRNPC S220 (P07910) [6]: −0.4698 | Occupancy Treated–Control, HNRNPC S225 (P07910) [6]: −0.4597 | Occupancy Treated–Control, MCM2 S13 (P49736) [6]: −0.4061 ^2 | Occupancy Treated–Control, MCM2 S139 (P49736) [6]: −0.3422 ^2 | Occupancy Treated–Control, NAP1L4 S7 (Q99733) [6]: −0.2719 | Occupancy Treated–Control, NOP56 S520 (O00567) [6]: −0.3705 | Occupancy Treated–Control, SEPTIN2 S218 (Q15019) [6]: −0.4261 ^1, 2 | Occupancy Treated–Control, SRSF11 S433 (Q05519) [6]: −0.3794 | Occupancy Treated–Control, STT3B S499 (Q8TCJ2) [6]: −0.3445 | Occupancy Treated–Control, TOP2A S1247 (P11388) [6]: −0.3351 | Occupancy Treated–Control, TOP2B S1550 (Q02880) [6]: −0.2936 | IC50 [7]: < 40 µM
